According to US6664231B1, “Anti-fungal peptides” (priority 1993, dated 2003):

Key:
Candida albicans SLU-1 = assay: Radial diffusion assay (Example 3), wild type strain; format: cell-based; details: FIG. 2A
Protocol: (§1) For the radial diffusion assays, Candida albicans SLU-1 were grown as described above and SLU-2G were grown overnight in Sabouraud dextrose broth supplemented with 10 μg/mL amphotericin B and 5 μg/mL ceftriaxone at 37° C. Cultures were diluted 1:25 into fresh, unsupplemented broth and allowed to grow for 5 hours at 37° C. Cells were pelleted at 1,500×g for 5 minutes at 4° C. Supernatant was decanted and replaced with 5 mL of 10 mM phosphate buffer, pH 7.4. After centrifugation the cell pellets were resuspended with 5 mL phosphate buffer for an OD570 determination. One OD570 for SLU-1 cells was 3×10^7 CFU/mL and for SLU-2G cells was 5×10^6 CFU/mL.
(§2) Cells were added to 10 mL of molten, cooled (˜45° C.) underlayer agarose to a concentration of 1×10^6/mL and the suspension was poured into a level square petri plate with gentle rocking to allow even distribution and solidification to a uniform thickness of about 1 mm. Wells were cut into the hardened agarose with a sterilize, 3 mm diameter punch with vacuum.
Peptides were two-fold serially diluted with DPBS from a starting concentration of approximately 1 mg/mL. Amphotericin B and nystatin were similarly diluted starting at 100 and 225 μg/mL, respectively. Five μL were added per well and allowed to diffuse at 37° C. for 1.5-2.0 hours. Then 10 mL of molten overlayer agarose were added and the plates were incubated inverted at 37° C. overnight. Plates were stained with a dilute Coomassie solution, inhibition zones were measured with calipers and net areas were calculated, then converted to pmol values by PROBIT analysis. The results of a representative experiment are shown in FIG. 2A for the SLU-1 strain and FIG. 2B for the SLU-2G strain. In FIGS. 2A and 2B, the fungicidal activity is represented for XMP.13 as open circles; for XMP.37 as closed circles; for XMP.97 as open triangles; for XMP.127 as closed triangles; for amphotericin B as open squares; and for nystatin as closed squares. The pmol for a 30 mm^2 zone of inhibition were calculated to be: for XMP.13, 689 pmol against SLU-1 and 129 pmol against SLU-2G; for XMP.37, 231 pmol against SLU-1 and 75 pmol against SLU-2G; for XMP.97, 670 pmol against SLU-1 and 161 pmol against SLU-2G; for XMP.127, 935 pmol against SLU-1 and 116 pmol against SLU-2G; for amphotericin B, 36 pmol against SLU-1 and >541 pmol for SLU-2G; and for nysttin, 98 pmol against SLU-1 and >1,215 pmol against SLU-2G.

[1] = test system: Candida albicans SLU-2G amphotericin B-resistant strain; assay: Radial diffusion assay (Example 3), amphotericin B-resistant strain; format: cell-based; details: FIG. 2B
Protocol: Domain III derived peptides were tested for their fungicidal activity on amphotericin resistant Candida. Resistant colonies of Candida were isolated using a gradient plate technique. A slanted Sabouraud dextrose agar plate was poured and allowed to harden. The plate was made level and additional agar supplemented with nystatin (Sigma, St. Louis, Mo., cat. no. N-3503) at a concentration of 10 μg/mL was poured. Cells from the CA-1 colony of Candida albicans SLU-1 strain described in Example 2 (10^7 cells in a volume of 100 μL) were spread over the plate and incubated at […] overnight.
as §1, with “determination.” for “determination. One OD570 for SLU-1 cells was 3×10^7 CFU/mL and for SLU-2G cells was 5×10^6 CFU/mL.”
as §2
Peptides were two-fold serially diluted with DPBS from a starting concentration of approximately 1 mg/mL. […] Five μL were added per well and allowed to diffuse at 37° C. for 1.5-2.0 hours. Then 10 mL of molten overlayer agarose were added and the plates were incubated inverted at 37° C. overnight. Plates were stained with a dilute Coomassie solution, inhibition zones were measured with calipers and net areas were calculated, then converted to pmol values by PROBIT analysis.

| Compound | pmol for a 30 mm^2 zone of inhibition against SLU-1 (Candida albicans SLU-1) [pmol] | pmol for a 30 mm^2 zone of inhibition against SLU-2G [1] [pmol] |
| --- | --- | --- |
| C[C@@H]1[C@H](O)[C@@H](C)/C=C/C=C/C=C/C=C/C=C/C=C/C=C/[C@H](O[C@@H]2O[C@H](C)[C@@H](O)[C@H](N)[C@@H]2O)C[C@@H]2O[C@](O)(C[C@@H](O)C[C@@H](O)[C@H](O)CC[C@@H](O)C[C@@H](O)CC(=O)O[C@H]1C)C[C@H](O)[C@H]2C(=O)O [Amphotericin B, amphotericin B, reference compound] | 36 | > 541 |
| H-KSKVGWAIQLFHKK-NH2 [XMP.37] | 231 | 75 |
| H-KSKVGWLIQLFHKK-NH2 [XMP.13] | 689 | 129 |
